# From ChEMBL document CHEMBL1201861, “Genomics of Drug Sensitity in Cancer screening data, Wellcome Trust Sanger Institute”
# pIC50: −log10 of the molar value.
# Key:
# Assay in all cases: cells
# [1] = system: ChaGo-K-1; format: functional, cell-based; conditions: Homo sapiens;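 further: growth inhibition of ChaGo-K-1 cells, read out with a cell viability assay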
# Description: SANGER: Inhibition of human ChaGo-K-1 cell growth in a cell viability assay.
# [2] = system: DOHH-2; format: functional, cell-based; conditions: Homo sapiens;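 further: growth inhibition of human DOHH-2 cells, read out with a cell viability assay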
# Description: SANGER: Inhibition of human DOHH-2 cell growth in a cell viability assay.
# [3] = system: DU-4475; format: functional, cell-based; conditions: Homo sapiens
# Description: SANGER: Inhibition of human DU-4475 cell growth in a cell viability assay.
# [4] = system: EM-2; format: functional, cell-based; conditions: Homo sapiens;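 further: growth inhibition of EM-2 cells, read out with a cell viability assay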
# Description: SANGER: Inhibition of human EM-2 cell growth in a cell viability assay.
# [5] = system: ES6; format: functional, cell-based, Homo sapiens; conditions: Homo sapiens, ES6;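 further: growth inhibition of human ES6 cells, read out with a cell viability assay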
# Description: SANGER: Inhibition of human ES6 cell growth in a cell viability assay.
# [6] = system: EW-13; format: functional, cell-based; conditions: Homo sapiens;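 further: growth inhibition of EW-13 cells, read out with a cell viability assay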
# Description: SANGER: Inhibition of human EW-13 cell growth in a cell viability assay.
# [7] = system: HCC70; format: functional, cell-based, Homo sapiens; conditions: Homo sapiens, HCC70;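 further: cell viability assay measuring how strongly the compound suppresses proliferation of HCC70 cells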
# Description: SANGER: Inhibition of human HCC70 cell growth in a cell viability assay.
# [8] = system: HGC-27; format: functional, cell-based, Homo sapiens; conditions: Homo sapiens, HGC-27;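 further: growth inhibition of human HGC-27 cells, read out in a cell viability assay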
# Description: SANGER: Inhibition of human HGC-27 cell growth in a cell viability assay.
# [9] = system: HL-60; format: functional, cell-based; conditions: Homo sapiens;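 further: growth inhibition of human HL-60 cells, read out with a cell viability assay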
# Description: SANGER: Inhibition of human HL-60 cell growth in a cell viability assay.
# [10] = system: HN; format: functional, cell-based, Homo sapiens; conditions: Homo sapiens, HN
# Description: SANGER: Inhibition of human HN cell growth in a cell viability assay.
# [11] = system: HT-1376; format: functional, cell-based, Homo sapiens; conditions: Homo sapiens, HT-1376
# Description: SANGER: Inhibition of human HT-1376 cell growth in a cell viability assay.
# [12] = system: HuP-T3; format: functional, cell-based, Homo sapiens; conditions: Homo sapiens, HuP-T3;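 further: HuP-T3 cell growth inhibition, read out with a cell viability assay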
# Description: SANGER: Inhibition of human HuP-T3 cell growth in a cell viability assay.
# [13] = system: HuP-T4; format: functional, cell-based, Homo sapiens; conditions: Homo sapiens, HuP-T4;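 further: cell viability assay measuring how much HuP-T4 cell growth is inhibited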
# Description: SANGER: Inhibition of human HuP-T4 cell growth in a cell viability assay.
# [14] = system: J82; format: functional, cell-based; conditions: Homo sapiens;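 further: growth inhibition of J82 cells, read out with a cell viability assay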
# Description: SANGER: Inhibition of human J82 cell growth in a cell viability assay.
# [15] = system: JVM-2; format: functional, cell-based; conditions: Homo sapiens;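 further: growth inhibition of JVM-2 cells determined by a cell viability assay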
# Description: SANGER: Inhibition of human JVM-2 cell growth in a cell viability assay.
# [16] = system: KY821; format: functional, cell-based; conditions: Homo sapiens;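 further: growth inhibition of human KY821 cells, read out by a cell viability assay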
# Description: SANGER: Inhibition of human KY821 cell growth in a cell viability assay.
# [17] = system: LC-2-ad; format: functional, cell-based, Homo sapiens; conditions: Homo sapiens, LC-2-ad;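 further: growth inhibition of human LC-2-ad cells, read out with a cell viability assay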
# Description: SANGER: Inhibition of human LC-2-ad cell growth in a cell viability assay.
# [18] = system: LK-2; format: functional, cell-based, Homo sapiens; conditions: Homo sapiens, LK-2;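 further: growth inhibition of LK-2 cells, read out with a viability assay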
# Description: SANGER: Inhibition of human LK-2 cell growth in a cell viability assay.
# [19] = system: LOX IMVI; format: functional, cell-based; conditions: Homo sapiens
# Description: SANGER: Inhibition of human LOXIMVI cell growth in a cell viability assay.
# [20] = system: LS-411N; format: functional, cell-based, Homo sapiens; conditions: Homo sapiens, LS-411N
# [21] = system: MDA-MB-361; format: functional, cell-based, Homo sapiens; conditions: Homo sapiens, MDA-MB-361
# [22] = system: MHH-PREB-1; format: functional, cell-based; conditions: Homo sapiens;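 further: cell viability assay measuring inhibition of proliferation of human MHH-PREB-1 cells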
# Description: SANGER: Inhibition of human MHH-PREB-1 cell growth in a cell viability assay.
# [23] = system: MKN-7; format: functional, cell-based, Homo sapiens; conditions: Homo sapiens, MKN-7;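 further: growth inhibition of MKN-7 cells, read out with a cell viability assay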
# Description: SANGER: Inhibition of human MKN7 cell growth in a cell viability assay.
# [24] = system: MZ2-MEL; format: functional, cell-based, Homo sapiens; conditions: Homo sapiens, MZ2-MEL;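 further: growth inhibition of MZ2-MEL cells read out with a cell viability assay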
# Description: SANGER: Inhibition of human MZ2-MEL cell growth in a cell viability assay.
# [25] = system: MZ7-mel; format: functional, cell-based, Homo sapiens; conditions: Homo sapiens, MZ7-mel;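 further: growth inhibition of human MZ7-mel cells, measured by a cell viability assay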
# Description: SANGER: Inhibition of human MZ7-mel cell growth in a cell viability assay.
# [26] = system: NB5; format: functional, cell-based, Homo sapiens; conditions: Homo sapiens, NB5;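 further: growth inhibition of NB5 cells, read out as cell viability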
# Description: SANGER: Inhibition of human NB5 cell growth in a cell viability assay.
# [27] = system: NCI-H1623; format: functional, cell-based, Homo sapiens; conditions: Homo sapiens, NCI-H1623;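 further: cell viability assay used as the read-out for growth inhibition of NCI-H1623 cells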
# Description: SANGER: Inhibition of human NCI-H1623 cell growth in a cell viability assay.
# [28] = system: NCI-H1648; format: functional, cell-based, Homo sapiens; conditions: Homo sapiens, NCI-H1648;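 further: cell viability assay measuring inhibition of NCI-H1648 cell growth, from the Sanger screening data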
# Description: SANGER: Inhibition of human NCI-H1648 cell growth in a cell viability assay.
# [29] = system: NCI-H1693; format: functional, cell-based, Homo sapiens; conditions: Homo sapiens, NCI-H1693;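 further: growth inhibition of the human cell line, read out with a cell viability assay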
# Description: SANGER: Inhibition of human NCI-H1693 cell growth in a cell viability assay.
# [30] = system: NTERA-2-cl-D1; format: functional, cell-based, Homo sapiens; conditions: Homo sapiens, NTERA-2-cl-D1;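 further: inhibition of cell growth, measured with a cell viability assay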
# Description: SANGER: Inhibition of human NTERA-S-cl-D1 cell growth in a cell viability assay.
# [31] = system: ONS-76; format: functional, cell-based, Homo sapiens; conditions: Homo sapiens, ONS-76;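 further: growth inhibition of human ONS-76 cells, read out with a cell viability assay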
# Description: SANGER: Inhibition of human ONS-76 cell growth in a cell viability assay.
# [32] = system: PFSK-1; format: functional, cell-based, Homo sapiens; conditions: Homo sapiens, PFSK-1;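 further: cell viability assay measuring how strongly compounds suppress growth of human PFSK-1 cells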
# Description: SANGER: Inhibition of human PFSK-1 cell growth in a cell viability assay.
# [33] = system: RCM-1; format: functional, cell-based, Homo sapiens; conditions: Homo sapiens, RCM-1;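 further: growth inhibition of the RCM-1 line, determined with a cell viability readout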
# Description: SANGER: Inhibition of human RCM-1 cell growth in a cell viability assay.
# [34] = system: SCC-15; format: functional, cell-based, Homo sapiens; conditions: Homo sapiens, SCC-15;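 further: growth inhibition of SCC-15 cells, read out with a cell viability assay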
# Description: SANGER: Inhibition of human SCC-15 cell growth in a cell viability assay.
# [35] = system: SW1417; format: functional, cell-based, Homo sapiens; conditions: Homo sapiens, SW1417;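 further: growth inhibition of human SW1417 cells, read out with a cell viability assay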
# Description: SANGER: Inhibition of human SW1417 cell growth in a cell viability assay.
# [36] = system: SW1990; format: functional, cell-based, Homo sapiens; conditions: Homo sapiens, SW1990;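 further: cell growth inhibition determined with a viability assay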
# Description: SANGER: Inhibition of human SW1990 cell growth in a cell viability assay.
# [37] = system: SW-620; format: functional, cell-based, Homo sapiens; conditions: Homo sapiens, SW-620;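 further: growth inhibition of human SW-620 cells, measured by a cell viability assay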
# Description: SANGER: Inhibition of human SW620 cell growth in a cell viability assay.
# [38] = system: SW 954; format: functional, cell-based, Homo sapiens; conditions: Homo sapiens, SW 954;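 further: growth inhibition of SW954 human cancer cells, read out as cell viability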
# Description: SANGER: Inhibition of human SW954 cell growth in a cell viability assay.
# [39] = system: 8-MG-BA; format: functional, cell-based, Homo sapiens; conditions: Homo sapiens, 8-MG-BA;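 further: growth inhibition of 8-MG-BA cells, read out with a cell viability assay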
# Description: SANGER: Inhibition of human 8-MG-BA cell growth in a cell viability assay.
# [40] = system: A-375; format: functional, cell-based, Homo sapiens; conditions: Homo sapiens, A-375;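 further: growth inhibition of A375 cells, read out with a cell viability assay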
# Description: SANGER: Inhibition of human A375 cell growth in a cell viability assay.
# [41] = system: A388; format: functional, cell-based, Homo sapiens; conditions: Homo sapiens, A388;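 further: growth inhibition of human A388 cells, read out with a cell viability assay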
# Description: SANGER: Inhibition of human A388 cell growth in a cell viability assay.
# [42] = system: ACHN; format: functional, cell-based, Homo sapiens; conditions: Homo sapiens, ACHN;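 further: cell viability read-out used to gauge how strongly growth of human ACHN cells is suppressed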
# Description: SANGER: Inhibition of human ACHN cell growth in a cell viability assay.
# [43] = system: AGS; format: functional, cell-based, Homo sapiens; conditions: Homo sapiens, AGS;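 further: growth inhibition of AGS cells, determined with a cell viability assay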
# Description: SANGER: Inhibition of human AGS cell growth in a cell viability assay.
# [44] = system: ALL-PO; format: functional, cell-based; conditions: Homo sapiens;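 further: growth inhibition of ALL-PO cells, read out by a cell viability assay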
# Description: SANGER: Inhibition of human ALL-PO cell growth in a cell viability assay.
# [45] = system: BV-173; format: functional, cell-based; conditions: Homo sapiens
# Description: SANGER: Inhibition of human BV-173 cell growth in a cell viability assay.
# [46] = system: TE-6; format: functional, cell-based, Homo sapiens; conditions: Homo sapiens, TE-6;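 further: growth inhibition of TE-6 cells, read out with a cell viability assay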
# Description: SANGER: Inhibition of human TE-6 cell growth in a cell viability assay.
# [47] = system: TE-8; format: functional, cell-based, Homo sapiens; conditions: Homo sapiens, TE-8;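 further: growth inhibition of TE-8 cells, measured with a cell viability readout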
# Description: SANGER: Inhibition of human TE-8 cell growth in a cell viability assay.
# [48] = system: TYK-nu; format: functional, cell-based, Homo sapiens; conditions: Homo sapiens, TYK-nu;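 further: growth inhibition of human TYK-nu cells, read out by a cell viability assay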
# Description: SANGER: Inhibition of human TYK-nu cell growth in a cell viability assay.
# [49] = system: VMRC-RCZ; format: functional, cell-based; conditions: Homo sapiens;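 further: growth inhibition measured with a cell viability assay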
# Description: SANGER: Inhibition of human VMRC-RCZ cell growth in a cell viability assay.
# [50] = system: CAMA-1; format: functional, cell-based, Homo sapiens; conditions: Homo sapiens, CAMA-1;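 further: growth inhibition of CAMA-1 cells, read out with a cell viability assay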
# Description: SANGER: Inhibition of human CAMA-1 cell growth in a cell viability assay.
# [51] = system: CGTH-W-1; format: functional, cell-based, Homo sapiens; conditions: Homo sapiens, CGTH-W-1;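 further: growth inhibition of human CGTH-W-1 cells measured by cell viability assay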
# Description: SANGER: Inhibition of human CGTH-W-1 cell growth in a cell viability assay.
# [52] = system: COLO-668; format: functional, cell-based, Homo sapiens; conditions: Homo sapiens, COLO-668
# Description: SANGER: Inhibition of human COLO-668 cell growth in a cell viability assay.
compound,measurement,setting,value
C=CCNC1=C2C[C@@H](C)C[C@H](OC)[C@H](O)[C@@H](C)/C=C(\C)[C@H](OC(N)=O)[C@@H](OC)/C=C\C=C(/C)C(=O)NC(=CC1=O)C2=O [TANESPIMYCIN],pIC50,[1],6.50
same,pIC50,[2],< 6.00
same,pIC50,[3],7.65
same,pIC50,[4],< 6.00
same,pIC50,[5],< 6.00
same,pIC50,[6],< 6.00
same,pIC50,[7],6.04
same,pIC50,[8],8.29
same,pIC50,[9],< 6.00
same,pIC50,[10],7.37
same,pIC50,[11],6.77
same,pIC50,[12],6.40
same,pIC50,[13],6.89
same,pIC50,[14],6.56
same,pIC50,[15],< 6.00
same,pIC50,[16],6.52
same,pIC50,[17],6.85
same,pIC50,[18],6.74
same,pIC50,[19],7.23
same,pIC50,[20],6.33
same,pIC50,[21],7.83
same,pIC50,[22],< 6.00
same,pIC50,[23],< 6.00
same,pIC50,[24],7.18
same,pIC50,[25],6.75
same,pIC50,[26],< 6.00
same,pIC50,[27],< 6.00
same,pIC50,[28],6.82
same,pIC50,[29],< 6.00
same,pIC50,[30],6.48
same,pIC50,[31],< 6.00
same,pIC50,[32],< 6.00
same,pIC50,[33],< 6.00
same,pIC50,[34],< 6.00
same,pIC50,[35],< 6.00
same,pIC50,[36],6.92
same,pIC50,[37],7.15
same,pIC50,[38],6.53
same,pIC50,[39],7.02
same,pIC50,[40],6.89
same,pIC50,[41],6.12
same,pIC50,[42],6.22
same,pIC50,[43],7.71
same,pIC50,[44],< 6.00
same,pIC50,[45],6.16
same,pIC50,[46],6.59
same,pIC50,[47],6.95
same,pIC50,[48],7.40
same,pIC50,[49],6.86
same,pIC50,[50],6.89
same,pIC50,[51],7.63
same,pIC50,[52],< 6.00
O=C1N=C(NCc2cccs2)S/C1=C\c1ccc2ncccc2c1,pIC50,[1],< 5.30
same,pIC50,[2],< 5.30
same,pIC50,[3],< 5.30
same,pIC50,[4],< 5.30
same,pIC50,[5],< 5.30
same,pIC50,[6],< 5.30
same,pIC50,[7],< 5.30
same,pIC50,[8],< 5.30
same,pIC50,[9],< 5.30
same,pIC50,[10],< 5.30
same,pIC50,[11],< 5.30
same,pIC50,[12],< 5.30
same,pIC50,[13],< 5.30
same,pIC50,[14],< 5.30
same,pIC50,[15],< 5.30
same,pIC50,[16],< 5.30
same,pIC50,[17],< 5.30
same,pIC50,[18],< 5.30
same,pIC50,[19],< 5.30
same,pIC50,[20],< 5.30
same,pIC50,[21],< 5.30
same,pIC50,[22],< 5.30
same,pIC50,[23],< 5.30
same,pIC50,[24],< 5.30
same,pIC50,[25],< 5.30
same,pIC50,[26],< 5.30
same,pIC50,[27],< 5.30
same,pIC50,[28],< 5.30
same,pIC50,[29],< 5.30
same,pIC50,[30],< 5.30
same,pIC50,[31],< 5.30
same,pIC50,[32],< 5.30
same,pIC50,[33],< 5.30
same,pIC50,[34],< 5.30
same,pIC50,[35],< 5.30
same,pIC50,[36],< 5.30
same,pIC50,[37],< 5.30
same,pIC50,[38],< 5.30
same,pIC50,[39],5.50
same,pIC50,[40],< 5.30
same,pIC50,[41],< 5.30
same,pIC50,[42],< 5.30
same,pIC50,[43],< 5.30
same,pIC50,[44],5.72
same,pIC50,[45],< 5.30
same,pIC50,[46],< 5.30
same,pIC50,[47],< 5.30
same,pIC50,[48],< 5.30
same,pIC50,[49],< 5.30
same,pIC50,[50],< 5.30
same,pIC50,[51],< 5.30
same,pIC50,[52],< 5.30
CC(=O)O[C@@H]1[C@@H](OC(C)=O)[C@@H](O)[C@H](Oc2c(-c3ccc(O)cc3)oc3cc(O)cc(O)c3c2=O)O[C@H]1C,pIC50,[1],< 5.00
same,pIC50,[2],< 5.00
same,pIC50,[3],5.12
same,pIC50,[4],< 5.00
same,pIC50,[5],< 5.00
same,pIC50,[6],< 5.00
same,pIC50,[7],< 5.00
same,pIC50,[8],< 5.00
same,pIC50,[9],< 5.00
same,pIC50,[10],< 5.00
same,pIC50,[11],< 5.00
same,pIC50,[12],< 5.00
same,pIC50,[13],< 5.00
same,pIC50,[14],< 5.00
same,pIC50,[15],< 5.00
same,pIC50,[16],< 5.00
same,pIC50,[17],< 5.00
same,pIC50,[18],< 5.00
same,pIC50,[19],< 5.00
same,pIC50,[20],< 5.00
same,pIC50,[21],< 5.00
same,pIC50,[22],< 5.00
same,pIC50,[23],< 5.00
same,pIC50,[24],< 5.00
same,pIC50,[25],< 5.00
same,pIC50,[26],< 5.00
same,pIC50,[27],< 5.00
same,pIC50,[28],< 5.00
same,pIC50,[29],< 5.00
same,pIC50,[30],< 5.00
same,pIC50,[31],< 5.00
same,pIC50,[32],< 5.00
same,pIC50,[33],< 5.00
same,pIC50,[34],< 5.00
same,pIC50,[35],< 5.00
same,pIC50,[36],< 5.00
same,pIC50,[37],< 5.00
same,pIC50,[38],< 5.00
same,pIC50,[39],< 5.00
same,pIC50,[40],< 5.00
same,pIC50,[41],< 5.00
same,pIC50,[42],< 5.00
same,pIC50,[43],< 5.00
same,pIC50,[44],< 5.00
same,pIC50,[45],5.52
same,pIC50,[46],< 5.00
same,pIC50,[47],< 5.00
same,pIC50,[48],< 5.00
same,pIC50,[49],< 5.00
same,pIC50,[50],< 5.00
same,pIC50,[51],< 5.00
same,pIC50,[52],< 5.00
